According to the supplement of paper PMC12819154, “High-throughput peptide-centric local stability assay extends protein–ligand identification to membrane proteins, tissues and bacteria” (Nature Structural & Molecular Biology, 2025):

Legend:
Assay in all cases: pEC50 of peptide local stability change
[1] = target: UniProt P31663; conditions: peptide sequence: NGYLTAEQR; direction: stabilized; replicate design: treated separately
Procedure, shortened: (§1)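 Each tabulated entry is a mean pEC50 taken across replicates. Four 50 µl replicates of desalted, MgCl2-supplemented E. coli K-12 BW25113 lysate (1.2 mg ml^−1) were exposed to ATP at seven doses from 10 µM to 10 mM, or to water, for 30 min at 25 °C, then trypsin-digested for 4 min at 22 °C and analysed by DIA LC–MS/MS. Treated/control peptide ratios from every replicate were fitted to a four-parameter log-logistic model, and an entry was kept only if fit R^2 exceeded 0.9 in at least three replicates and the coefficient of variation of the estimate was at most 0.25.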

[2] = target: UniProt P15034; conditions: peptide sequence: RAGEITAMAHTR; direction: stabilized; replicate design: treated separately
Procedure, shortened: as §1

[3] = target: UniProt P43672; conditions: peptide sequence: LMLGQLQADSGR; direction: stabilized; replicate design: treated separately
Procedure, shortened: as §1

[4] = target: UniProt P18392; conditions: peptide sequence: EHIFEPFVR; direction: stabilized; replicate design: treated separately
Procedure, shortened: as §1

[5] = target: UniProt P13009; conditions: peptide sequence: TPPVTLEAAR; direction: stabilized; replicate design: treated separately
UniProt P13009, sequence (P13009 whole entry): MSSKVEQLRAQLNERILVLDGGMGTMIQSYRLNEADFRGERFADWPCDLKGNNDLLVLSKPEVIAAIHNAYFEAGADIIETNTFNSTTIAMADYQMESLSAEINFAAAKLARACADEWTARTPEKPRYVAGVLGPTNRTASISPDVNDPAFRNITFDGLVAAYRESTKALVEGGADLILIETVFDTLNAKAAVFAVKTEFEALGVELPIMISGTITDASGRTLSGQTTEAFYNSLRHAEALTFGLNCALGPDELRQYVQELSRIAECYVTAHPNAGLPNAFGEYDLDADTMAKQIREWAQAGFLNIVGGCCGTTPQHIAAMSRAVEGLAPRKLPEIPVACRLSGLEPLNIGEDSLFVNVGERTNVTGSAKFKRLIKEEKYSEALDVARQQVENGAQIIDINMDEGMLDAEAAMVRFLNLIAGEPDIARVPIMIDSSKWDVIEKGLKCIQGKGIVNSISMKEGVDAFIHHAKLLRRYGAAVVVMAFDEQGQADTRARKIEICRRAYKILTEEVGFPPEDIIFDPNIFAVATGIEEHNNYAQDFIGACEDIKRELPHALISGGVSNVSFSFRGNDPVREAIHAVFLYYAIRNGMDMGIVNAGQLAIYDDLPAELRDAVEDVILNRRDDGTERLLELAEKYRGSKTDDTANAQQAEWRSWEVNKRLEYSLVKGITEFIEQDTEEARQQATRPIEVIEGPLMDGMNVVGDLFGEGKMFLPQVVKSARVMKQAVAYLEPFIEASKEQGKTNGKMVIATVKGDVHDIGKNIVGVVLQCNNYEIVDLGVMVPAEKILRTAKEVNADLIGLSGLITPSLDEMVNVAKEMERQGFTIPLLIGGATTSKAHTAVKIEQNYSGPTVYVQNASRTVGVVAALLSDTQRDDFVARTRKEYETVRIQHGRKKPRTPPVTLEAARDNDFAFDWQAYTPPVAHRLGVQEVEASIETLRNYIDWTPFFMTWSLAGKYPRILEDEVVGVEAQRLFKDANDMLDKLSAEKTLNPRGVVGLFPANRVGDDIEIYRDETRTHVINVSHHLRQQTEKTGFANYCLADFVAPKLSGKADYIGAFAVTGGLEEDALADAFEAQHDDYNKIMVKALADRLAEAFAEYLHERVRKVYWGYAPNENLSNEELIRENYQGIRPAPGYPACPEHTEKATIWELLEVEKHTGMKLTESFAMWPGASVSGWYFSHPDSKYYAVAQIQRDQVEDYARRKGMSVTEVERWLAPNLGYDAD
Procedure, shortened: as §1

[6] = target: UniProt P31060; conditions: peptide sequence: QSQFSHITR; direction: stabilized; replicate design: treated separately
Procedure, shortened: as §1

[7] = target: UniProt P75796; conditions: peptide sequence: IPEAQTILSR; direction: stabilized; replicate design: treated separately
UniProt P75796, sequence (P75796 whole entry): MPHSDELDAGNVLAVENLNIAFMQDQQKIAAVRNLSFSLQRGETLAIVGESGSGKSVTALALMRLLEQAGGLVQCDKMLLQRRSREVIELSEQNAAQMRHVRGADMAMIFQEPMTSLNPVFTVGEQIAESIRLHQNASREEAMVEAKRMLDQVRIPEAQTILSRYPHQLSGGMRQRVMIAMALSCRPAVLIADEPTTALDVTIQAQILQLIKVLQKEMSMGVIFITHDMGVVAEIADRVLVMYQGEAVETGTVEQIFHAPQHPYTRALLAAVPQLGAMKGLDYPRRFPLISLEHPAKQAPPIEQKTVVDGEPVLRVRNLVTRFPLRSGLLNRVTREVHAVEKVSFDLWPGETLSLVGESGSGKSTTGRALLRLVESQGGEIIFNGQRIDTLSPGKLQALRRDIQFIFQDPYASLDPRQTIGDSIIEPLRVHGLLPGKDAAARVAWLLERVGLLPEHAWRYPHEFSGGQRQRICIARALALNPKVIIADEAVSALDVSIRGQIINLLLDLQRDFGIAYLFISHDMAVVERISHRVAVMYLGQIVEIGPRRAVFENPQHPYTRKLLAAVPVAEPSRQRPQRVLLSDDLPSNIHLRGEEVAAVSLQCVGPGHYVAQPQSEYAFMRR
Procedure, shortened: as §1

[8] = target: UniProt P0AES0; conditions: peptide sequence: GDESLVIKK; direction: stabilized; replicate design: treated separately
Procedure, shortened: as §1

[9] = target: UniProt P37903; conditions: peptide sequence: KFKLPTDR; direction: stabilized; replicate design: treated separately
Procedure, shortened: as §1

[10] = target: UniProt P00363; conditions: peptide sequence: LAGEQATER; direction: stabilized; replicate design: treated separately
Procedure, shortened: as §1

[11] = target: UniProt P07395; conditions: peptide sequence: EISRFPANRR; direction: stabilized; replicate design: treated separately
Procedure, shortened: as §1

[12] = target: UniProt P40719; conditions: peptide sequence: RFTSDAAHELR; direction: stabilized; replicate design: treated separately
Procedure, shortened: as §1

[13] = target: UniProt P33940; conditions: peptide sequence: EYYPQAK; direction: stabilized; replicate design: treated separately
UniProt P33940, sequence (P33940 whole entry): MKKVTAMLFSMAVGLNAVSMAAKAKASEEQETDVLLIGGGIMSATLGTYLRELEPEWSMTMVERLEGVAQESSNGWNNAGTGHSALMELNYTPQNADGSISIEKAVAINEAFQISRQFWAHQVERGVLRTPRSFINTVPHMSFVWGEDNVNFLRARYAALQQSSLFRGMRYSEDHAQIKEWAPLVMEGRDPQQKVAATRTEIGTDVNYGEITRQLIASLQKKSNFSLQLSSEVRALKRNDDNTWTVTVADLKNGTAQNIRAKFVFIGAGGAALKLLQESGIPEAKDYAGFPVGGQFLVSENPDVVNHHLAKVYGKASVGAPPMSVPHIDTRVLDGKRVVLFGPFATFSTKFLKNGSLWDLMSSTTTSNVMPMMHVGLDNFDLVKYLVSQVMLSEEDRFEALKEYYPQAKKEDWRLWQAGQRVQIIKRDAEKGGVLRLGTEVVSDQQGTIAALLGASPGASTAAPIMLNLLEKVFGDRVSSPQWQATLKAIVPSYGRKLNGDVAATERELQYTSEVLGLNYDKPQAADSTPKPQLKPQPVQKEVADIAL
Procedure, shortened: as §1

[14] = target: UniProt P07109; conditions: peptide sequence: HVSTHVIFLHQGK; direction: stabilized; replicate design: treated separately
Procedure, shortened: as §1

[15] = target: UniProt P77485; conditions: peptide sequence: GTVAVTSDAR; direction: stabilized; replicate design: treated separately
UniProt P77485, sequence (P77485 whole entry): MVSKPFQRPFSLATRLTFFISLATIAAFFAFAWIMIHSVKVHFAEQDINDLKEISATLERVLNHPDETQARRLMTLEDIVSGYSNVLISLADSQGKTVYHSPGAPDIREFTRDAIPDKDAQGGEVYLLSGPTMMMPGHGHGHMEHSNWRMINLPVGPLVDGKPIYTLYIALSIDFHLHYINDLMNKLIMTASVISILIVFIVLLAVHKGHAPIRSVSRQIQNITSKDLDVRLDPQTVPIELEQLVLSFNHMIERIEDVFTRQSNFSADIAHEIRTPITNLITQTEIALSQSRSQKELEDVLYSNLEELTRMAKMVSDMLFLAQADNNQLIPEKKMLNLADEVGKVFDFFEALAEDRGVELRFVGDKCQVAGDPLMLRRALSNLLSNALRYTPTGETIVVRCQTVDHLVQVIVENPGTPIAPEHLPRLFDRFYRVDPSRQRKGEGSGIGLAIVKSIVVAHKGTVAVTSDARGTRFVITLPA
Procedure, shortened: as §1

[16] = target: UniProt P14375; conditions: peptide sequence: ELENAVER; direction: stabilized; replicate design: treated separately
Procedure, shortened: as §1

[17] = target: UniProt P37744; conditions: peptide sequence: LSVAMMGR; direction: stabilized; replicate design: treated separately
UniProt P37744, sequence (P37744 whole entry): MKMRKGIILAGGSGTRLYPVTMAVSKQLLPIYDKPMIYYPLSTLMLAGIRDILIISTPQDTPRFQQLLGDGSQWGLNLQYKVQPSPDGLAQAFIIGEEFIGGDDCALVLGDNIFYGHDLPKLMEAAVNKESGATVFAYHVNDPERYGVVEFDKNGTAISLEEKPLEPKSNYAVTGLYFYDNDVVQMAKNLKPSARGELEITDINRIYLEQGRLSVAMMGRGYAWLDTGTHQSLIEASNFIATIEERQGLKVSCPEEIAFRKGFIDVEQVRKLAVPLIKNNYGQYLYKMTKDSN
Procedure, shortened: as §1

[18] = target: UniProt P0C0L2; conditions: peptide sequence: GQAHWEGDIKR; direction: stabilized; replicate design: treated separately
UniProt P0C0L2, sequence (P0C0L2 whole entry): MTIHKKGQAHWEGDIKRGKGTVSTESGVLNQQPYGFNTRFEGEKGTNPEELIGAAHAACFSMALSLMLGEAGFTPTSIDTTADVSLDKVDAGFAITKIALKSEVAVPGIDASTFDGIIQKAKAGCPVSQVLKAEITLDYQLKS
Procedure, shortened: as §1

[19] = target: UniProt P24182; conditions: peptide sequence: LMGDKVSAIAAMKK; direction: stabilized; replicate design: treated separately
Procedure, shortened: as §1

[20] = target: UniProt P23331; conditions: peptide sequence: AEHEQQAIHCVLVDECQFLTR; direction: stabilized; replicate design: treated separately
UniProt P23331, sequence (P23331 whole entry): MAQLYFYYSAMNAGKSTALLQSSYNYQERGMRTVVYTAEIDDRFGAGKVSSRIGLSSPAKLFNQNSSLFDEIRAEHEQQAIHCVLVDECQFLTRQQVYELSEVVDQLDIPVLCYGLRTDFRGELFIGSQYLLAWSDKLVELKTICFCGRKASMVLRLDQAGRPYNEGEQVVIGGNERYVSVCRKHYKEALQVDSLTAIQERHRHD
Procedure, shortened: as §1

[21] = target: UniProt P25888; conditions: peptide sequence: DLMASAQTGTGK; direction: stabilized; replicate design: treated separately
Procedure, shortened: as §1

[22] = target: UniProt P33593; conditions: peptide sequence: LADDVAVMSDGK; direction: stabilized; replicate design: treated separately
Procedure, shortened: as §1

[23] = target: UniProt P07118; conditions: peptide sequence: ITPAHDFNDYEVGKR; direction: stabilized; replicate design: treated separately
Procedure, shortened: as §1

[24] = target: UniProt P39410; conditions: peptide sequence: HIAQEMPEK; direction: stabilized; replicate design: treated separately
Procedure, shortened: as §1

[25] = target: UniProt P0ACW4; conditions: peptide sequence: GGISHCTAGGKFVCNDGSISASK; direction: stabilized; replicate design: treated separately
Procedure, shortened: as §1

[26] = target: UniProt P33919; conditions: peptide sequence: VLVLAHVK; direction: stabilized; replicate design: treated separately
Procedure, shortened: as §1

[27] = target: UniProt P23837; conditions: peptide sequence: VDTLRPGQGVGLAVAR; direction: stabilized; replicate design: treated separately
UniProt P23837, sequence (P23837 whole entry): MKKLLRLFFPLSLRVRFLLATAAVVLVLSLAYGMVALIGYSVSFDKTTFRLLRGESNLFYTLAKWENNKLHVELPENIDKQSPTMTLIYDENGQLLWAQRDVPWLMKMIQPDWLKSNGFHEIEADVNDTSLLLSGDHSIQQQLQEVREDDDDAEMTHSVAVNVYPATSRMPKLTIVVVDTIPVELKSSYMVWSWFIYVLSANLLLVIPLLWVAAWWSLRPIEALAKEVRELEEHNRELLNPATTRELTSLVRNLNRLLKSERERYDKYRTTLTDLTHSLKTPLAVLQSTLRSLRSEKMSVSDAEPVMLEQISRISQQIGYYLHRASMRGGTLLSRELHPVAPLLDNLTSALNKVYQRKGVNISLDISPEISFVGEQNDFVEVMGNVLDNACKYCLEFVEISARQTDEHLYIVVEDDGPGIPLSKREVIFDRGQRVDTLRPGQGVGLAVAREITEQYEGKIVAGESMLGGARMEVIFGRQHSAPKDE
Procedure, shortened: as §1

[28] = target: UniProt P76014; conditions: peptide sequence: VVEKLPAIADKDIGFILK; direction: stabilized; replicate design: treated separately
Procedure, shortened: as §1

[29] = target: UniProt P14081; conditions: peptide sequence: LFITAATEGR; direction: stabilized; replicate design: treated separately
UniProt P14081, sequence (P14081 whole entry): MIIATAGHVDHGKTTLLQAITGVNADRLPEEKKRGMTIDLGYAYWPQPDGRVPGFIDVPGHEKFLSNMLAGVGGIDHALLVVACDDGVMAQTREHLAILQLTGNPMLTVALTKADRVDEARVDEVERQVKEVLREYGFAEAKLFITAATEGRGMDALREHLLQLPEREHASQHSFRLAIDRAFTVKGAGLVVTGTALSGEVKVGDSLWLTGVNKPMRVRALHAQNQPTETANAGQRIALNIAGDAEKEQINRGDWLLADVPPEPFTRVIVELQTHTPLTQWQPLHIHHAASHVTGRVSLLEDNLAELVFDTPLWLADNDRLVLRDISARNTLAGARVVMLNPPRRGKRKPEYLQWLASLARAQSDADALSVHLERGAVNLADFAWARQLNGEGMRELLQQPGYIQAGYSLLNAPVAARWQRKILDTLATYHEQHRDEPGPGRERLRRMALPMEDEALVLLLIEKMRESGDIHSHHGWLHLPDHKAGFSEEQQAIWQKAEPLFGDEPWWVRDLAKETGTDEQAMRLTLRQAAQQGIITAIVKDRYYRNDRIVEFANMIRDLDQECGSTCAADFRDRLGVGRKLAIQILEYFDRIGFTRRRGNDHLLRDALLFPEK
Procedure, shortened: as §1

[30] = target: UniProt P0A9B6; conditions: peptide sequence: SLQSLPWR; direction: stabilized; replicate design: treated separately
Procedure, shortened: as §1

[31] = target: UniProt P37344; conditions: peptide sequence: ETLLNYR; direction: stabilized; replicate design: treated separately
UniProt P37344, sequence (P37344 whole entry): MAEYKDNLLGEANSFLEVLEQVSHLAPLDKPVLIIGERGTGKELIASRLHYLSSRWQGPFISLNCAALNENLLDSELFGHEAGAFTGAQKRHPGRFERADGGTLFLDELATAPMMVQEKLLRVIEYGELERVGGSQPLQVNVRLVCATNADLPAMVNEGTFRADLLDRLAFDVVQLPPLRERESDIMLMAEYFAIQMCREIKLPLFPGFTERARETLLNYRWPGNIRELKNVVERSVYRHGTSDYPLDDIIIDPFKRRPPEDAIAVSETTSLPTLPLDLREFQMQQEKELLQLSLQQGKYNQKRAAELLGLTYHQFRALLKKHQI
Procedure, shortened: as §1

Nc1ncnc2c1ncn2[C@@H]1O[C@H](COP(=O)(O)OP(=O)(O)OP(=O)(O)O)[C@@H](O)[C@H]1O [adenosine 5'-triphosphate]
Conditions	pEC50 of peptide local stability change
[1]	4.25
[2]	3.83
[3]	3.81
[4]	2.88
[5]	2.53
[6]	2.89
[7]	3.2
[8]	3.95
[9]	3.72
[10]	2.48
[11]	3.77
[12]	3.59
[13]	3.09
[14]	3.88
[15]	2.24
[16]	3.65
[17]	3.22
[18]	3.96
[19]	3.89
[20]	3.2
[21]	3.76
[22]	4.43
[23]	3.75
[24]	3.92
[25]	2.19
[26]	4.16
[27]	3.21
[28]	3.61
[29]	3.42
[30]	2.62
[31]	3.2
